# From patent US20260078114A1, “COMPOUND USED AS INHIBITOR OF CDK4 KINASE AND USE THEREOF” (TYK MEDICINES, INC., priority 2022, published 2026)
# Where two headings read alike, the source gives them in different places.
# Columns and labels:
# [1] = tested on: ovarian cancer cell A2780; assay: Cellular antiproliferative assay (MTT, 5 days), A2780; assay type: cell-based, human; settings: A2780 cells, 5 days incubation
# Method: (§1) Human breast cancer cell MCF-7, ovarian cancer cell A2780, human mantle cell lymphoma cell JEKO-1. DMEM medium (Bio-Channel), DMSO (dimethyl sulfoxide), MTT (thiazolyl blue), 0.25% EDTA-Tripsin (tryptic digest), 1×PBS (phosphate buffer, PH7.2), 96-well plate (Corning), fetal bovine serum (FBS), 10,000 U/mL penicillin-G/streptomycin, high-speed cryo-centrifuge (EPPENDORF 5810R), enzyme-linked immunoassay (Tecan Spark).
# (§2) • A) Tumor cells were cultured in DMEM (high sugar with 10% FBS and 100 U/mL penicillin-G/streptomycin) at 37° C., 5% CO2 and saturated humidity until 80-90% dense. • B) Removed the culture medium from 10 cm Petri dishes; • C) Rinsed the cells once with 10 ml 1×PBS; • D) Added 4 ml 0.25% EDTA-Tripsin into 37° C., 5% CO2 incubator for trypsin digestion for 5 minutes, transferred to 15 ml centrifuge tube, centrifuged at 200 g for 5 minutes, discarded the supernatant to get cell precipitate; • E) Resuspended with 4 ml DMEM medium, counted and adjust to 50,000 cells/ml. • F) Added cell suspension to 96-well plate with 100 μL per well volume and incubated overnight at 37° C., 5% CO2 incubator.
# (§3) • A) Preparation of gradient dilution solution of the tested compound: the test compound was configured into 1 mM reservoir solution.
# (§4) • A) Taking the cell culture plate and adding 10 μL of 5 mg/ml MTT in the biosafety cabinet; • B) Putting the cell culture plate back into the incubator and continued incubation for 3 hours; • C) Taking the cell culture plate and removing the culture medium, adding 100 μL isopropanol (containing 0.4 mM HCl, 0.1% NP-40), and shaking the bed at room temperature for 30 min; and • D) Determining the absorbance value by selecting 570 nm on a TECAN enzyme-linked immunoassay detector.
# (§5) The % Cell Viability was calculated using the following formula:
# (§6) [formula] • Lum_HC: 0.1% DMSO control cell reading • Lum_Sample: cell readings with compound added • Lum_LC: Blank medium reading
# CDK6/CyclinD3 = CDK6/CyclinD3 (Homo sapiens, UniProt Q00534); assay: Kinase activity test (mobility shift assay, EZ Reader), CDK6; assay type: biochemical; settings: CDK6/CyclinD3 5.00 nM, ATP 350 μM, FL-Peptide34
# Sequence of CDK6/CyclinD3 (Q00534 whole entry, species assumed): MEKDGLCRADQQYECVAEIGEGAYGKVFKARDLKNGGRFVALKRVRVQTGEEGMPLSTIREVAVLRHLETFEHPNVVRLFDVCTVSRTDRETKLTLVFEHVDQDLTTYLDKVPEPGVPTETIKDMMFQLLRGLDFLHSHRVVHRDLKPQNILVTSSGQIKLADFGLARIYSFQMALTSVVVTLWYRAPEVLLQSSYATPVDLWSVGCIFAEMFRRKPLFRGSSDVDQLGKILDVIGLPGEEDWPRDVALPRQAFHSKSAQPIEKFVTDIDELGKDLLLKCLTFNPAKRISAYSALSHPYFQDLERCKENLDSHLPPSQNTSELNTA
# Sequence of CDK6/CyclinD3 (P30281 whole entry partner, species assumed): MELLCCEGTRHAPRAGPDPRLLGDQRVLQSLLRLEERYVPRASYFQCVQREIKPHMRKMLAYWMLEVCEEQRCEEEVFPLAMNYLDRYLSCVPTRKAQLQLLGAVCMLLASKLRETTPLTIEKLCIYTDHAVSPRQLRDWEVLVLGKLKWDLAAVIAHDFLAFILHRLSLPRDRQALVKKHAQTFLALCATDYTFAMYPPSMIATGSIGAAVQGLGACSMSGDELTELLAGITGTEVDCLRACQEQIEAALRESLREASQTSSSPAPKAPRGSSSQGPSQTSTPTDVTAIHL
# [2] = tested on: Human breast cancer cell MCF-7; assay: Cellular antiproliferative assay (MTT, 5 days), MCF-7; assay type: cell-based; settings: MCF-7 cells, 5 days incubation
# Method: as §1, §2, §3, §4, §5, §6
# [3] = tested on: human mantle cell lymphoma cell JEKO-1; assay: Cellular antiproliferative assay (MTT, 5 days), JEKO-1; assay type: cell-based; settings: JEKO-1 cells, 5 days incubation
# Method: as §1, §2, §3, §4, §5, §6
# CDK4/CycD1 = CDK4/CycD1 (Homo sapiens, UniProt P11802); assay: Kinase activity test (mobility shift assay, EZ Reader), CDK4
# Sequence of CDK4/CycD1 (P11802 whole entry, species assumed): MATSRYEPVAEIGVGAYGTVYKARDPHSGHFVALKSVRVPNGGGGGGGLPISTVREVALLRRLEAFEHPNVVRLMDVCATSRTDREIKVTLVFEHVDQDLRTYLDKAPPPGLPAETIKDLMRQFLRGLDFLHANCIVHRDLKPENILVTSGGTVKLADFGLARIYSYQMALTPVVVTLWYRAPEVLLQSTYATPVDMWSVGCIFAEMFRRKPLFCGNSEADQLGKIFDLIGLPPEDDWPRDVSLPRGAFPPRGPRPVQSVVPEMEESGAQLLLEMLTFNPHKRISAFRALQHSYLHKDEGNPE
# Sequence of CDK4/CycD1 (P24385 whole entry partner, species assumed): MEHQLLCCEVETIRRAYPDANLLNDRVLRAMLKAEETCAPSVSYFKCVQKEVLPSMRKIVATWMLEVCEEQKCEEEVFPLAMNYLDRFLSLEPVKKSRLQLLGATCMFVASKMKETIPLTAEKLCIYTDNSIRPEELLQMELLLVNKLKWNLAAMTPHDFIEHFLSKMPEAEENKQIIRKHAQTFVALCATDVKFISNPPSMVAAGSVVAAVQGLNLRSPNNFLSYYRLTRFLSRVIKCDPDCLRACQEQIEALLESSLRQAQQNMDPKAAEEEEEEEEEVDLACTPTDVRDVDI
# Method: The tested compounds were subjected to CDK4 and CDK6 kinase IC50 values test.
# • (1) Preparing a 1.3× enzyme solution containing enzyme, substrate and cofactor as shown below. • (2) Adding 15 μL of 1.3× enzyme solution to each well and incubating for 30 min at room temperature. • (3) Starting the reaction by adding 5 μL of 4×ATP solution, with each test well containing the listed components and a final volume of 20 μL. • (4) Incubating for 150 minutes and then stopping the reaction by adding 75 μL of buffer (containing 0.5 M EDTA). • (5) Reading the data from each test well by EZ for analysis.
# Percentage inhibition was calculated using the read conversion ratio (CR) according to the formula below:
# The wells treated with DMSO were used as positive control (positive control) and the wells without enzyme were used as negative control (negative control).
SMILES,"IC50 ([1]; Homo sapiens, 120 h)",IC50 (CDK6/CyclinD3),"IC50 ([2]; Homo sapiens, MCF7, 120 h)","IC50 ([3]; Homo sapiens, 120 h)",further results
"COC(=O)N1CCC(Nc2ncc(Cl)c(-c3cc(F)c4nc5n(c4c3)CCCN5C)n2)CC1 [TB-93, methyl 4-((5-chloro-4-(9-fluoro-1-methyl-1,2,3,4-tetrahydrobenzo[4,5]imidazo[1,2-a]pyrimidin-7-yl)pyrimidin-2-yl)amino)piperidine-1-carboxylate]",≤ 500 nM,> 500 nM,500 to 2000 nM,≤ 500 nM,
CC(C)C(=O)N(c1cc(F)cc(-c2nc(N[C@@H]3CCOC[C@H]3O)ncc2Cl)c1)C(C)C [TA-20],,319 nM,,,IC50 (CDK4/CycD1): 108 nM
"CC(C)N1CCOc2c(F)cc(-c3nc(NC4CCCC(C(=O)N(C)C)C4)ncc3Cl)cc21 (stereo not drawn) [TA-14, 3-((5-chloro-4-(8-fluoro-4-isopropyl-3,4-dihydro-2H-benzo[b][1,4]oxazin-6-yl)pyrimidin-2-yl)amino)-N,N-dimethylcyclohexane-1-carboxamide]",,> 500 nM,,,IC50 (CDK4/CycD1): 69.4 nM
"CC(C)N1CCOc2c(F)cc(-c3nc(NC4CCOCC4)ncc3F)cc21 [TA-8, 5-fluoro-4-(8-fluoro-4-isopropyl-3,4-dihydro-2H-benzo[b][1,4]oxazin-6-yl)-N-(tetrahydro-2H-pyran-4-yl)pyrimidin-2-amine]",,67.3 nM,,,IC50 (CDK4/CycD1): 21.4 nM
CC(C)N1CCOc2c(F)cc(-c3nc(N[C@@H]4CCC[C@H](NS(C)(=O)=O)C4)ncc3Cl)cc21 [TA-17],,83.4 nM,,,IC50 (CDK4/CycD1): 22.7 nM
CC(C)n1c(N(C)C)nc2c(F)cc(-c3nc(N[C@H]4CC[C@@H](NS(C)(=O)=O)CC4)ncc3Cl)cc21 [TB-4],,> 500 nM,,,
CC(C)n1c(N2CCOC2=O)nc2c(F)cc(-c3nc(Nc4ccc(S(=O)(=O)NC5(C#N)CC5)cc4)ncc3Cl)cc21 [TB-68],,> 500 nM,,,
"CC(C)c1c(C(C)(C)O)nc2c(F)cc(-c3nc(N[C@@H]4CCOC[C@H]4O)ncc3Cl)cn12 [TA-27, (3S,4R)-4-((5-chloro-4-(8-fluoro-2-(2-hydroxypropan-2-yl)-3-isopropylimidazo[1,2-a]pyridin-6-yl)pyrimidin-2-yl)amino)tetrahydro-2H-pyran-3-ol]",,203 nM,,,IC50 (CDK4/CycD1): 21.8 nM
CC(C)n1c(N2CCOC2=O)nc2c(F)cc(-c3nc(NC4CCN(S(=O)(=O)C(C)C)CC4)ncc3Cl)cc21 [TB-32],≤ 500 nM,,≤ 500 nM,≤ 500 nM,
"C[C@@H]1CCN(C)c2nc3c(F)cc(-c4nc(N[C@@H]5CCOC[C@H]5O)ncc4Cl)cc3n21 [TB-91, (3S,4R)-4-((5-chloro-4-((R)-9-fluoro-1,4-dimethyl-1,2,3,4-tetrahydrobenzo[4,5]imidazo[1,2-a]pyrimidin-7-yl)pyrimidin-2-yl)amino)tetrahydro-2H-pyran-3-ol]",≤ 500 nM,,≤ 500 nM,≤ 500 nM,
C[C@@H]1C[C@H](C)n2c(nc3c(F)cc(-c4nc(N[C@@H]5CCOC[C@H]5O)ncc4Cl)cc32)N1C [TB-154],≤ 500 nM,,≤ 500 nM,≤ 500 nM,
CN1C(=O)CC(C)(C)n2c1nc1c(F)cc(-c3cc(N[C@@H]4CCOC[C@H]4O)ncc3Cl)cc12 [TB-162],,,,,IC50 [1]: ≤ 500 nM; IC50 ([2]; read-out: MCF7 IC50): ≤ 500 nM; IC50 [3]: ≤ 500 nM
"CC(C)n1c(N(C)C)nc2c(F)cc(-c3nc(NC4CCOCC4)ncc3Cl)cc21 [TB-2, 6-(5-chloro-2-((tetrahydro-2H-pyran-4-yl)amino)pyrimidin-4-yl)-4-fluoro-1-isopropyl-N,N-dimethyl-1H-benzo[d]imidazol-2-amine]",≤ 500 nM,,≤ 500 nM,≤ 500 nM,
"CNS(=O)(=O)c1ccc(Nc2ncc(Cl)c(-c3cc(F)c4nc5n(c4c3)C(C)CCN5C)n2)cc1 (stereo not drawn) [TB-53, 4-((5-chloro-4-(9-fluoro-1,4-dimethyl-1,2,3,4-tetrahydrobenzo[4,5]imidazo[1,2-a]pyrimidin-7-yl)pyrimidin-2-yl)amino)-N-methylbenzenesulfonamide]",≤ 500 nM,,≤ 500 nM,≤ 500 nM,
"CN1CCn2c1nc1c(F)cc(-c3nc(N[C@@H]4CCOC[C@H]4O)ncc3Cl)cc12 [TB-45, (3S,4R)-4-((5-chloro-4-(8-fluoro-1-methyl-2,3-dihydro-1H-benzo[d]imidazo[1,2-a]imidazol-6-yl)pyrimidin-2-yl)amino)tetrahydro-2H-pyran-3-ol]",≤ 500 nM,,≤ 500 nM,≤ 500 nM,
CC(C)n1c(N2CCCC2=O)nc2c(F)cc(-c3nc(N[C@@H]4CCOC[C@H]4O)ncc3Cl)cc21 [TA-54],,> 500 nM,,,
"CN1CCCn2c1nc1c(F)cc(-c3nc(Nc4ccc(C#N)cc4)ncc3Cl)cc12 [TB-133, 4-((5-chloro-4-(9-fluoro-1-methyl-1,2,3,4-tetrahydrobenzo[4,5]imidazo[1,2-a]pyrimidin-7-yl)pyrimidin-2-yl)amino)benzonitrile]",≤ 500 nM,,≤ 500 nM,≤ 500 nM,
"CN1C(=O)CCn2c1nc1c(F)cc(-c3nc(N[C@@H]4CCOC[C@H]4O)ncc3Cl)cc12 [TB-46, 7-(5-chloro-2-(((3S,4R)-3-hydroxytetrahydro-2H-pyran-4-yl)amino)pyrimidin-4-yl)-9-fluoro-1-methyl-3,4-dihydrobenzo[4,5]imidazo[1,2-a]pyrimidin-2(1H)-one]",≤ 500 nM,,≤ 500 nM,≤ 500 nM,
"CC(C)n1c(N2CCOC2=O)nc2c(F)cc(-c3nc(Nc4ccc(S(=O)(=O)NCCN(C)C)cc4)ncc3Cl)cc21 [TB-38, 4-((5-chloro-4-(4-fluoro-1-isopropyl-2-(2-oxooxazolidin-3-yl)-1H-benzo[d]imidazol-6-yl)pyrimidin-2-yl)amino)-N-(2-(dimethylamino)ethyl)benzenesulfonamide]",≤ 500 nM,,≤ 500 nM,≤ 500 nM,
CC(C)n1c(N2CCOC2=O)nc2c(F)cc(-c3nc(NC4CCN(S(C)(=O)=O)CC4(F)F)ncc3Cl)cc21 (stereo not drawn) [TB-35],≤ 500 nM,,≤ 500 nM,≤ 500 nM,
CN1CCCn2c1nc1c(F)cc(-c3nc(N[C@@H]4CCOC[C@H]4O)ncc3Cl)cc12 [TB-40],≤ 500 nM,,≤ 500 nM,≤ 500 nM,
CCN1CCN(Cc2ccc(Nc3ncc(Cl)c(-c4cc(F)c5nc(N(C)C)n(C(C)C)c5c4)n3)nc2)CC1 [TB-16],≤ 500 nM,,≤ 500 nM,≤ 500 nM,
CC(C)n1c(N2CCOC2=O)nc2c(F)cc(-c3nc(NC4CCN(S(C)(=O)=O)CC4)ncc3F)cc21 [TB-28],≤ 500 nM,,≤ 500 nM,≤ 500 nM,
CC(C)n1c(N2CCCOC2=O)nc2c(F)cc(-c3nc(N[C@@H]4CCOC[C@H]4O)ncc3Cl)cc21 [TB-25],≤ 500 nM,,500 to 2000 nM,≤ 500 nM,
"COC(=O)N1CCC[C@@H](Nc2ncc(Cl)c(-c3cc(F)c4c(c3)N(C(C)C)CCO4)n2)C1 [TA-10, methyl (R)-3-((5-chloro-4-(8-fluoro-4-isopropyl-3,4-dihydro-2H-benzo[b][1,4]oxazin-6-yl)pyrimidin-2-yl)amino)piperidine-1-carboxylate]",,206 nM,,,IC50 (CDK4/CycD1): 57.6 nM
"CN1CCCn2c1nc1c(F)cc(-c3nc(NC4CCC(F)(F)CC4)ncc3Cl)cc12 [TB-95, 5-chloro-N-(4,4-difluorocyclohexyl)-4-(9-fluoro-1-methyl-1,2,3,4-tetrahydrobenzo[4,5]imidazo[1,2-a]pyrimidin-7-yl)pyrimidin-2-amine]",,> 500 nM,,,
CN1CCCn2c1nc1c(F)cc(-c3nc(Nc4ccncc4)ncc3Cl)cc12 [TB-90],≤ 500 nM,,500 to 2000 nM,≤ 500 nM,
"CN1CCCn2c1nc1c(F)cc(-c3nc(N[C@@H]4CCOC[C@H]4O)ncc3C(F)(F)F)cc12 [TB-41, (3S,4R)-4-((4-(9-fluoro-1-methyl-1,2,3,4-tetrahydrobenzo[4,5]imidazo[1,2-a]pyrimidin-7-yl)-5-(trifluoromethyl)pyrimidin-2-yl)amino)tetrahydro-2H-pyran-3-ol]",500 to 2000 nM,> 500 nM,500 to 2000 nM,500 to 2000 nM,
"CC(C)n1c(N(C)CCO)nc2c(F)cc(-c3nc(N[C@@H]4CCOC[C@H]4O)ncc3Cl)cc21 [TB-9, (3S,4R)-4-((5-chloro-4-(4-fluoro-2-((2-hydroxyethyl)(methyl)amino)-1-isopropyl-1H-benzo[d]imidazol-6-yl)pyrimidin-2-yl)amino)tetrahydro-2H-pyran-3-ol]",≤ 500 nM,,500 to 2000 nM,≤ 500 nM,
